Legend:
Assay in all cases: relative viability (nuclei count vs DMSO), 5 days (fraction); higher = more cells survive
[1] = compound: C1COCCN1C2=NC(=NC3=C2OC4=C3C=CC=N4)C5=CC(=CC=C5)NC(=O)C6=CN=C(C=C6)N + C[C@@H](Oc1cc(-c2cnn(C3CCNCC3)c2)cnc1N)c1c(Cl)ccc(F)c1Cl [Crizotinib] (partner 1 µM)
Summary of the method: (§1)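 One day after seeding in 1536-well plates, lung cancer cell lines were dosed by pin tool. Dosing was either single-drug or a fixed anchor-drug dose plus five library-drug doses (not always all listed) in √10 steps. After 5 days, nuclei were stained in one fix-and-stain step and counted on 4× images, and relative viability is the nuclei count of treated wells over that of vehicle wells, given as the median of duplicate plates.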

[2] = compound: C1COCCN1C2=NC(=NC3=C2OC4=C3C=CC=N4)C5=CC(=CC=C5)NC(=O)C6=CN=C(C=C6)N + O=C(CCCCCCC(=O)Nc1ccccc1)NO [Vorinostat] (partner 1 µM)
Summary of the method: as §1

[3] = compound: Nc1ccccc1NC(=O)c1ccc(CNC(=O)OCc2cccnc2)cc1 [Entinostat] + CC1(C)CCC(c2ccc(Cl)cc2)=C(CN2CCN(c3ccc(C(=O)NS(=O)(=O)c4ccc(N[C@H](CCN5CCOCC5)CSc5ccccc5)c(S(=O)(=O)C(F)(F)F)c4)cc3)CC2)C1 [Navitoclax] (partner 0.5 µM)
Summary of the method: as §1

[4] = compound: Nc1ccccc1NC(=O)c1ccc(CNC(=O)OCc2cccnc2)cc1 [Entinostat] + O=C(c1cc(Cc2n[nH]c(=O)c3ccccc23)ccc1F)N1CCN(C(=O)C2CC2)CC1 [Olaparib] (partner 8 µM)
Summary of the method: as §1

H3255
relative viability ([1]; first compound 0.02 µM): 0.729
relative viability ([1]; first compound 0.06325 µM): 0.805
relative viability ([1]; first compound 0.2 µM): 0.758
relative viability ([1]; first compound 0.6325 µM): 0.844
relative viability ([1]; first compound 2 µM): 0.586
relative viability ([2]; first compound 0.02 µM): 0.814
relative viability ([2]; first compound 0.06325 µM): 0.744
relative viability ([2]; first compound 0.2 µM): 0.788
relative viability ([2]; first compound 0.6325 µM): 0.781
relative viability ([2]; first compound 2 µM): 0.698
relative viability ([3]; first compound 0.02 µM): 0.536
relative viability ([3]; first compound 0.06325 µM): 0.453
relative viability ([3]; first compound 0.2 µM): 0.309
relative viability ([3]; first compound 0.6325 µM): 0.174
relative viability ([3]; first compound 2 µM): 0.121
relative viability ([4]; first compound 0.02 µM): 0.606
relative viability ([4]; first compound 0.06325 µM): 0.51
relative viability ([4]; first compound 0.2 µM): 0.454
relative viability ([4]; first compound 0.6325 µM): 0.364
relative viability ([4]; first compound 2 µM): 0.308

NCI-H1915
relative viability ([1]; first compound 0.02 µM): 0.887
relative viability ([1]; first compound 0.06325 µM): 1
relative viability ([1]; first compound 0.2 µM): 0.983
relative viability ([1]; first compound 0.6325 µM): 0.907
relative viability ([1]; first compound 2 µM): 0.494
relative viability ([2]; first compound 0.02 µM): 0.539
relative viability ([2]; first compound 0.06325 µM): 0.572
relative viability ([2]; first compound 0.2 µM): 0.536
relative viability ([2]; first compound 0.6325 µM): 0.536
relative viability ([2]; first compound 2 µM): 0.397
relative viability ([3]; first compound 0.02 µM): 0.809
relative viability ([3]; first compound 0.06325 µM): 0.716
relative viability ([3]; first compound 0.2 µM): 0.813
relative viability ([3]; first compound 0.6325 µM): 0.613
relative viability ([3]; first compound 2 µM): 0.283
relative viability ([4]; first compound 0.02 µM): 0.244
relative viability ([4]; first compound 0.06325 µM): 0.274
relative viability ([4]; first compound 0.2 µM): 0.23
relative viability ([4]; first compound 0.6325 µM): 0.21
relative viability ([4]; first compound 2 µM): 0.144

NCI-H1650
relative viability ([1]; first compound 0.02 µM): 1
relative viability ([1]; first compound 0.06325 µM): 1.05
relative viability ([1]; first compound 0.2 µM): 0.94
relative viability ([1]; first compound 0.6325 µM): 1.06
relative viability ([1]; first compound 2 µM): 0.601
relative viability ([2]; first compound 0.02 µM): 0.512
relative viability ([2]; first compound 0.06325 µM): 0.611
relative viability ([2]; first compound 0.2 µM): 0.406
relative viability ([2]; first compound 0.6325 µM): 0.642
relative viability ([2]; first compound 2 µM): 0.354
relative viability ([3]; first compound 0.02 µM): 1.2
relative viability ([3]; first compound 0.06325 µM): 1.28
relative viability ([3]; first compound 0.2 µM): 1.1
relative viability ([3]; first compound 0.6325 µM): 0.673
relative viability ([3]; first compound 2 µM): 0.673
relative viability ([4]; first compound 0.02 µM): 0.828
relative viability ([4]; first compound 0.06325 µM): 0.967
relative viability ([4]; first compound 0.2 µM): 0.819
relative viability ([4]; first compound 0.6325 µM): 0.527
relative viability ([4]; first compound 2 µM): 0.363

NCI-H647
relative viability ([1]; first compound 0.02 µM): 1.16
relative viability ([1]; first compound 0.06325 µM): 1.17
relative viability ([1]; first compound 0.2 µM): 0.943
relative viability ([1]; first compound 0.6325 µM): 1.09
relative viability ([1]; first compound 2 µM): 0.283
relative viability ([2]; first compound 0.02 µM): 0.625
relative viability ([2]; first compound 0.06325 µM): 0.757
relative viability ([2]; first compound 0.2 µM): 0.502
relative viability ([2]; first compound 0.6325 µM): 0.433
relative viability ([2]; first compound 2 µM): 0.29
relative viability ([3]; first compound 0.02 µM): 0.96
relative viability ([3]; first compound 0.06325 µM): 0.995
relative viability ([3]; first compound 0.2 µM): 0.928
relative viability ([3]; first compound 0.6325 µM): 0.374
relative viability ([3]; first compound 2 µM): 0.0716
relative viability ([4]; first compound 0.02 µM): 0.522
relative viability ([4]; first compound 0.06325 µM): 0.333
relative viability ([4]; first compound 0.2 µM): 0.426
relative viability ([4]; first compound 0.6325 µM): 0.0646
relative viability ([4]; first compound 2 µM): 0.0559

NCI-H2126
relative viability ([1]; first compound 0.02 µM): 1.04
relative viability ([1]; first compound 0.06325 µM): 1.09
relative viability ([1]; first compound 0.2 µM): 1.06
relative viability ([1]; first compound 0.6325 µM): 1
relative viability ([1]; first compound 2 µM): 0.645
relative viability ([2]; first compound 0.02 µM): 0.707
relative viability ([2]; first compound 0.06325 µM): 0.941
relative viability ([2]; first compound 0.2 µM): 0.758
relative viability ([2]; first compound 0.6325 µM): 0.786
relative viability ([2]; first compound 2 µM): 0.582
relative viability ([3]; first compound 0.02 µM): 0.849
relative viability ([3]; first compound 0.06325 µM): 0.833
relative viability ([3]; first compound 0.2 µM): 0.855
relative viability ([3]; first compound 0.6325 µM): 0.548
relative viability ([3]; first compound 2 µM): 0.396
relative viability ([4]; first compound 0.02 µM): 0.953
relative viability ([4]; first compound 0.06325 µM): 0.925
relative viability ([4]; first compound 0.2 µM): 0.886
relative viability ([4]; first compound 0.6325 µM): 0.742
relative viability ([4]; first compound 2 µM): 0.539

NCI-H727
relative viability ([1]; first compound 0.02 µM): 0.908
relative viability ([1]; first compound 0.06325 µM): 0.962
relative viability ([1]; first compound 0.2 µM): 0.739
relative viability ([1]; first compound 0.6325 µM): 0.725
relative viability ([1]; first compound 2 µM): 0.505
relative viability ([2]; first compound 0.02 µM): 1.14
relative viability ([2]; first compound 0.06325 µM): 1.22
relative viability ([2]; first compound 0.2 µM): 1.05
relative viability ([2]; first compound 0.6325 µM): 1.22
relative viability ([2]; first compound 2 µM): 1.12
relative viability ([3]; first compound 0.02 µM): 0.443
relative viability ([3]; first compound 0.06325 µM): 0.356
relative viability ([3]; first compound 0.2 µM): 0.312
relative viability ([3]; first compound 0.6325 µM): 0.177
relative viability ([3]; first compound 2 µM): 0.163
relative viability ([4]; first compound 0.02 µM): 0.73
relative viability ([4]; first compound 0.06325 µM): 0.735
relative viability ([4]; first compound 0.2 µM): 0.642
relative viability ([4]; first compound 0.6325 µM): 0.677
relative viability ([4]; first compound 2 µM): 0.532

EMC-BAC-2
relative viability ([1]; first compound 0.02 µM): 0.8
relative viability ([1]; first compound 0.06325 µM): 0.792
relative viability ([1]; first compound 0.2 µM): 0.76
relative viability ([1]; first compound 0.6325 µM): 0.805
relative viability ([1]; first compound 2 µM): 0.598
relative viability ([2]; first compound 0.02 µM): 0.533
relative viability ([2]; first compound 0.06325 µM): 0.376
relative viability ([2]; first compound 0.2 µM): 0.329
relative viability ([2]; first compound 0.6325 µM): 0.413
relative viability ([2]; first compound 2 µM): 0.419
relative viability ([3]; first compound 0.02 µM): 1.21
relative viability ([3]; first compound 0.06325 µM): 1.15
relative viability ([3]; first compound 0.2 µM): 1.25
relative viability ([3]; first compound 0.6325 µM): 0.968
relative viability ([3]; first compound 2 µM): 0.642
relative viability ([4]; first compound 0.02 µM): 0.48
relative viability ([4]; first compound 0.06325 µM): 0.444
relative viability ([4]; first compound 0.2 µM): 0.388
relative viability ([4]; first compound 0.6325 µM): 0.3
relative viability ([4]; first compound 2 µM): 0.23

NCI-H1437
relative viability ([1]; first compound 0.02 µM): 0.95
relative viability ([1]; first compound 0.06325 µM): 1.11
relative viability ([1]; first compound 0.2 µM): 0.827
relative viability ([1]; first compound 0.6325 µM): 0.964
relative viability ([1]; first compound 2 µM): 0.401
relative viability ([2]; first compound 0.02 µM): 0.82
relative viability ([2]; first compound 0.06325 µM): 0.919
relative viability ([2]; first compound 0.2 µM): 0.818
relative viability ([2]; first compound 0.6325 µM): 0.816
relative viability ([2]; first compound 2 µM): 0.432
relative viability ([3]; first compound 0.02 µM): 1.01
relative viability ([3]; first compound 0.06325 µM): 0.679
relative viability ([3]; first compound 0.2 µM): 0.432
relative viability ([3]; first compound 0.6325 µM): 0.216
relative viability ([3]; first compound 2 µM): 0.155
relative viability ([4]; first compound 0.02 µM): 0.491
relative viability ([4]; first compound 0.06325 µM): 0.378
relative viability ([4]; first compound 0.2 µM): 0.309
relative viability ([4]; first compound 0.6325 µM): 0.228
relative viability ([4]; first compound 2 µM): 0.196
